BindingDB's records for doi:10.7270/Q290226P (Vanderbilt Screening Center For Gpcrs, Ion Channels and …, 2010)

biological target: T1, Muscarinic acetylcholine receptor M5 (Homo sapiens, UniProt P08912); assay: PubChem AID 2186
T1 sequence (P08912 whole entry): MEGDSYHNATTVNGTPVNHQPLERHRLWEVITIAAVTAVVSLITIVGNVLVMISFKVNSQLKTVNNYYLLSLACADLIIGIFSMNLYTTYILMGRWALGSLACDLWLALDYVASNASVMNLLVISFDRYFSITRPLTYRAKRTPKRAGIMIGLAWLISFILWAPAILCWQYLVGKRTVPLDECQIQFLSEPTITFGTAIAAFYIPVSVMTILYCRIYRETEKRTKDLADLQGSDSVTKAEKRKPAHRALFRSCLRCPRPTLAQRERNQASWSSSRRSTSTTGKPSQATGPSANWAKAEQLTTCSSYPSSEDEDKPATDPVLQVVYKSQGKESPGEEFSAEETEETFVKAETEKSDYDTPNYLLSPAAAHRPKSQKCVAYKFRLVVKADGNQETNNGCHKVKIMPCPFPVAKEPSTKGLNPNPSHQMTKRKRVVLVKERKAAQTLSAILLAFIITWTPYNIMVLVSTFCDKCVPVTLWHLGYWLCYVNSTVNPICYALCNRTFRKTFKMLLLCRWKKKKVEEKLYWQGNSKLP

Row | EC50 [nM] | Compound
1 | > 442 | O=C1C(=O)N(Cc2ccc(-c3ccccc3)cc2)c2ccc(OC(F)(F)F)cc21
2 | > 442 | O=C1C(=O)N(Cc2ccc(-c3ccsc3)cc2)c2ccc(OC(F)(F)F)cc21

Row | Compound | EC50 [nM]
3 | COc1ccc(CN2C(=O)C(=O)c3cc(OC(F)(F)F)ccc32)cc1 [VU0238429] | 0.512
